Legend:
[1] = Cued conditioning acquisition (freezing during third tone of training); format: in vivo; conditions: ATAC, wild-type and AAV without FUS-BBBO mice
Experimental: (§1) Behavioral studies for fear conditioning were performed in sound-attenuated fear conditioning chambers (30×25×25 cm, Med Associates). Animals were trained and tested for context fear in Context A, which comprised a staggered wire grid floor, white light, 5% acetic acid for scent and no background noise. Locomotor testing was performed in Context B, which was differentiated from Context A by chamber shape, floor, illumination, odor, background noise and room location. Animal activity was recorded and quantified using Video Freeze software (Med Associates). For cued training, the tone was 80 dB and 30s.
Mice were injected with CNO (10 mg/kg, IP) or saline (IP), and after 40-60 minutes underwent context and cued fear conditioning in Context A. This timeframe was chosen to allow CNO to reach its pharmacokinetic peak[88]. A 3-minute initial baseline period was followed by 3×30-s presentations of a tone co-terminated with a 2-s foot shock (0.7 mA), with inter-trial interval of 60 s. After the trials, the mice remained in the context for an additional 60 s, after which they were transported back into the vivarium. After 24 h, mice were placed in Context A to record context fear for the duration of training (8 min. and 40 s). […]

hM3Dq [2] = biological target: T1, hM3Dq (Homo sapiens, UniProt P20309, A239G/Y149C); assay: Intersectional ATAC: c-Fos activation of TH-positive neurons in SNc/VTA of TH-CRE mice; format: in vivo, TH-CRE transgenic mice; design: expressed in transfected cells; host or cells: TH-positive neurons of SNc/VTA in TH-CRE transgenic mice, transduced in vivo with AAV9; conditions: CNO 1 mg/kg IP, 2 h; 9 weeks expression; n=5 mice
Experimental: After FUS-BBBO, the mice were imaged again using the same FLASH sequence to confirm opening of the BBB and appropriate targeting. Immediately afterwards, mice were placed in the home cage for recovery. The TH-CRE animals, aged 18 weeks, were subjected to FUS-BBBO using the same protocol, and using the same dose of AAV9, as for C57BL6J mice. All TH-CRE animals were females.
(§2) For activation of hippocampus, the histological evaluation was performed by an observer blinded to the identity (hM3Dq positive, or negative) of granular layer nuclei in dCA3. The expression status of the neurons was determined after the scoring of c-Fos positivity. The activation of TH neurons was evaluated by an observer blinded to the presence of FUS-BBBO targeting at a given site. TH-CRE mice expressed hM3Dq for 9 weeks after FUS-BBBO, and then were given 1 mg/kg CNO. After 2 h, they were anesthetized with ketamine/xylazine (80/10 mg/kg in PBS) and perfused using cold heparine/PBS (10 u) and then 10% NBF. […] A three-dimensional reference atlas[82] was used to choose the appropriate regions and brain sections for each mouse and contralateral and ipsilateral controls to ascertain consistency in choice of analyzed sections. […]

hM4Di = biological target: T2, hM4Di (Homo sapiens, UniProt P08173, A203G/Y113C); assay: Context fear conditioning and recall (freezing in Context A) with hM4Di targeted to ventral and dorsal hippocampus; format: in vivo, mice
T2 construct: host or cells: mouse (C57BL6J) hippocampal excitatory neurons transduced in vivo with AAV9
T2 sequence (P08173 1-479 Y113C/A203G): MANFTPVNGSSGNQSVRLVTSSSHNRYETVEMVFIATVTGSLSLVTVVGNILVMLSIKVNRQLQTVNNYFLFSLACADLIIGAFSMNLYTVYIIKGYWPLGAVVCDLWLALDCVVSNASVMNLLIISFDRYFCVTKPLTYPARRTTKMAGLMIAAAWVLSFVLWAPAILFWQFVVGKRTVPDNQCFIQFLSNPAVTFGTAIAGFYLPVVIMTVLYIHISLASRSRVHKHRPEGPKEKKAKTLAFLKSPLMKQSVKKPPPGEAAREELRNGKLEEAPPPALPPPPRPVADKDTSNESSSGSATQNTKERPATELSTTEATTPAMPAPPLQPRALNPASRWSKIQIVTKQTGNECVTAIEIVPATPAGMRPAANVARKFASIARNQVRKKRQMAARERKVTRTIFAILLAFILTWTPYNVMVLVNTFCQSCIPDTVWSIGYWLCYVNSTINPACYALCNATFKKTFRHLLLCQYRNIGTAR
Experimental: as §1
Mice were injected with CNO (10 mg/kg, IP) or saline (IP), and after 40-60 minutes underwent context and cued fear conditioning in Context A. This timeframe was chosen to allow CNO to reach its pharmacokinetic peak[88]. A 3-minute initial baseline period was followed by 3×30-s presentations of a tone co-terminated with a 2-s foot shock (0.7 mA), with inter-trial interval of 60 s. After the trials, the mice remained in the context for an additional 60 s, after which they were transported back into the vivarium. After 24 h, mice were placed in Context A to record context fear for the duration of training (8 min. and 40 s).
Mice were recorded using automated near-infrared video tracking in the fear conditioning chamber using VideoFreeze software. Mouse motion was measured using the activity score, from a video recording at 30 frames/s, with the motion threshold set at 18 activity units (standard value set in software). Freezing was defined as an activity score below 18 units for at least 1 s. Average freezing in the context test was scored over the whole trial. Due to automated data acquisition and evaluation, no blinding was necessary.
mice were excluded from statistical analysis if their histologically determined DREADD expression was below 30% of cell bodies in dorsal CA3 region of the hippocampus. This threshold was chosen based on previous studies showing that behavioral effects generally require modulation of at least 30% of the neurons in a targeted region[89, 90] and dorsal CA3 being the most robustly transfected hippocampus region. The resulting analyzed groups had identical levels of expression (55.1% for Saline and 60.5% for CNO groups, p=0.26, heteroscedastic, two-tailed, t-test). […] Variability in gene expression may have been due to variability in intravenous injections of virus during the FUS-BBBO procedure, since we found no difference between these mice in T1 MRI signal enhancement post FUS-BBBO (FIG. 15, panel b).
To assess the ability of ATAC to inhibit targeted neurons, and to test the functionality of this technology in a behavioral paradigm, FUS-BBBO was used to target inhibitory DREADDs (hM4Di) to ventral and dorsal hippocampus (FIG. 5, panel a), and the impact of CNO administration on the formation of contextual fear memories was assessed. This well-established behavioral paradigm has been used in studies of anxiety, phobias, PTSD and fear circuitry[99]° [100]. Fear conditioning has also served as a testing ground for other novel neuromodulatory techniques. Since the hippocampus plays an essential role in memory formation, it is hypothesized that inhibiting it noninvasively using the ATAC strategy would reduce the ability of mice to form fear memories.
Two groups of control mice were either completely untreated or received intravenous virus without FUS-BBBO. After 6-8 weeks, the mice underwent a fear conditioning protocol (FIG. 5, panel a). In this protocol, the mice are placed in a unique environment (defined by chamber shape, lighting, smell and sound; Context A in FIG. 5, panel a) while receiving three electric foot shocks, causing them to associate this environment with the noxious stimulus in a process known as context fear conditioning. […]

hM3Dq [3] = biological target: T1, hM3Dq; assay: c-Fos activation in dorsal CA3 of hippocampus after CNO in mice expressing hM3Dq-mCherry (ATAC); format: in vivo; design: host or cells: mouse (C57BL6J) hippocampal excitatory neurons transduced in vivo with AAV9; conditions: CNO 1 mg/kg IP, 2.5 h, 22 weeks after FUS-BBBO, n=6
Experimental: C57BL6J male mice of 13 weeks of age underwent FUS-BBBO to administer AAV9 carrying hM3Dq-mCherry into the hippocampus. Subsequently, mice were housed singly to reduce background C-fos expression. After 22 weeks of expression, mice received an IP injection of 1 mg/kg CNO in sterile saline, and were returned to home cages. After 150 minutes, mice were anesthetized using Ketamine/Xylazine solution (80 mg/kg and 10 mg/kg, respectively, in PBS) and perfused with a cold PBS/Heparin (10 U/ml), and immediately afterwards with 10% Neutral Buffered Formalin (NBF). Their brains were extracted and post-fixed in 10% NBF for at least 24 hours. Brain sections (50 μm) were obtained using a VF-300 compresstome (Precisionary Instruments). […]
as §2, with “site.” for “site. TH-CRE mice expressed hM3Dq for 9 weeks after FUS-BBBO, and then were given 1 mg/kg CNO. After 2 h, they were anesthetized with ketamine/xylazine (80/10 mg/kg in PBS) and perfused using cold heparine/PBS (10 u) and then 10% NBF.”

[4] = Exploratory behavior in novel environment (Context B, open field test); format: in vivo; conditions: all groups of mice (ATAC, AAV without FUS-BBBO, wild-type), 3 minutes
Experimental: as §1
Between 30 and 45 minutes after the context fear test, mice were transported to another room, placed in Context B and allowed to explore the chamber for 3 minutes while their activity was recorded. Due to automated data acquisition and evaluation, no blinding was necessary.
One day after fear conditioning, the mice were placed in a novel environment (Context B in FIG. 5, panel a), which they were allowed to explore freely for 3 minutes. The exploratory behavior of all groups of mice was likewise unaffected by CNO administration (FIG. 5, panel e-g).

T1 sequence (P20309 whole entry Y149C/A239G): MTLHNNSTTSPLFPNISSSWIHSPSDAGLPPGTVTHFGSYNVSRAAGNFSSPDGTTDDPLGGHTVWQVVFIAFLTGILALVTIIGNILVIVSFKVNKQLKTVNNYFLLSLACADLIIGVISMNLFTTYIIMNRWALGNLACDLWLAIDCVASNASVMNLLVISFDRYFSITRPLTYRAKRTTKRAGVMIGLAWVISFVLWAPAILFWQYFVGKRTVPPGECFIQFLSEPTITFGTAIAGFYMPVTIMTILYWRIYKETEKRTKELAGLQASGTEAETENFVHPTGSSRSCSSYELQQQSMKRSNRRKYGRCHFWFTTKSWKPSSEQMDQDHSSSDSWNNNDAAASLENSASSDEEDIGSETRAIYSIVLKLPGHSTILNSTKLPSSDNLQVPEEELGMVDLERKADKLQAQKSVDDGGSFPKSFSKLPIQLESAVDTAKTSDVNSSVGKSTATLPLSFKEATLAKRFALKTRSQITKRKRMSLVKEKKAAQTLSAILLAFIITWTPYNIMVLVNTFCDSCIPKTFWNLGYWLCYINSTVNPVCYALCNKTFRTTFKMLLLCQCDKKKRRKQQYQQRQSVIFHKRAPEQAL

C[N+]1([O-])CCN(C2=Nc3cc(Cl)ccc3Nc3ccccc32)CC1 [CNO, clozapine-N-oxide]
cued freezing at the end of the training session [1]: unaffected
increase in activation (c-Fos) among TH-positive neurons, ATAC-targeted side versus contralateral (hM3Dq [2]): 7.3 fold
time spent freezing in fear recall context (hM4Di; ATAC mice (hM4Di), CNO 10 mg/kg IP 40-60 min before conditioning, recall 24 h later, saline 53.2%): 21.8%
context fear (freezing) without excluding mice with expression below 30% (hM4Di; ATAC mice treated with CNO, all mice, saline 53.2%): 34%
reduction in fear memory versus saline (hM4Di; ATAC mice, CNO before conditioning, n=13 and 7): more than 2 fold
context fear relative to untreated controls (hM4Di; CNO treatment alone in wild-type mice): did not result in a reduction in context fear
correlation (r) of DREADD expression in dorsal CA3 with formation of context fear memories (hM4Di; mice treated with CNO, all mice, n=11): 0.62
reduction in fear memory formation (hM4Di; single injection of CNO several weeks after FUS-BBBO): 2.4 fold
context fear relative to untreated controls (hM4Di; systemic AAV9 injection without FUS-BBBO, CNO): did not result in a reduction in context fear
likelihood of c-Fos staining, hM3Dq-positive cells versus cells not expressing hM3Dq (hM3Dq [3]): 5.8 times
exploratory behavior [4]: unaffected

From patent US11400168B2, “Methods and systems for noninvasive control of brain cells and related vectors and compositions” (CALIFORNIA INSTITUTE OF TECHNOLOGY, priority 2017, dated 2022)
